Earlier results, collected in paper PMC2785468, “Androgen Receptor Mutations Associated with Androgen Insensitivity Syndrome: A High Content Analysis Approach Leading to Personalized Medicine” (PLoS ONE, 2009).

Assays:
F764L mutation = test system: F764L mutation; parameters: method as in PMID 7929841; details: MMTV-luc reporter, transfected CV1 cells; cited from earlier work
P766S = test system: P766S; parameters: method as in PMID 7929841; details: cited from earlier work
mutant F764L = details: transfected CHO cells; cited from earlier work
R840C mutated receptor = details: transfected CV1 cells; cited from earlier work

C[C@]12CCC(=O)C[C@@H]1CC[C@@H]1[C@@H]2CC[C@]2(C)[C@@H](O)CC[C@@H]12 [DHT, dihydrotestosterone]
transcriptional activity (in words) (F764L mutation): significantly decreased transcriptional activity
transcriptional activity, % of control (P766S): 9%
Kd (mutant F764L): 0.1 nM
transcriptional activity, % of control (R840C mutated receptor): 67%
